The test system of this assay is THP-1 cells. Nature of the assay: Lamp1 lysosomal exocytosis assay. Format: cell-based. The following applies: Homo sapiens, 55 min, 55 min incubation, top dose 20 μM. The protocol:
For the Lamp1 lysosomal exocytosis assay, a human monocytic suspension cell line (THP-1) was used. Cells in culture should be used between a density of […] and 1.2e6/mL on the day of the assay. For each 96-well assay plate to be used, pellet 11e6 THP-1 cells at 330×g for 5 min in a 50 mL conical tube, aspirate media and resuspend in 22 mLs of RPMI 1640/10% FBS media for a final cell concentration of 5e5/mL. Prior to addition of cells to the assay plate, perform a 7 pt dilution curve using a top dose of compound at 2 mM and use a 3-fold serial dilution, the 8th point is DMSO only. Final top dose of compound in the assay was 20 μM. 2 μL of each serial dilution was transferred to a new 96-well v-bottom assay plate. 198 μL of cells (1e5 total cells/well) was prepared as above in each well of the assay plate and incubated at 37° C./5% CO2/95% RH for 55 min. After the 55 min incubation, cells were pelleted for 5 min at 4 C at 400×g in a tabletop centrifuge. The media was separated from the cell pellets in the plate. The pellets were washed using 200 μL ice cold buffer (PBS Ca^++/Mg^++ containing 2% final BSA and 80 μM final Dynasore). Cells were pelleted again at 400×g-5 min in a 4° C. tabletop centrifuge. Buffer was separated from cells. Each well was suspended in 75 uL Lamp1-PE antibody buffer (PBS Ca^++/Mg^++ containing 2% final BSA with 80 uM final Dynasore and 1:800 final dilution of Lamp 1-PE labeled antibody). After a 45 min antibody incubation on ice, 25 μL of sytox green was added (I drop/mL buffer), and each well was mixed and incubated for an additional 15 min on ice. After the 15 min sytox green incubation, 100 μL of ice-cold buffer (PBS Ca^++/Mg^++ containing 2% final BSA and 80 uM final Dynasore) was added and cells were pelleted for 5 min at 400×g. The buffer was removed and each sample was resuspended in 100 uL of ice-cold buffer (PBS Ca^++/Mg^++ containing 2% final BSA and 80 μM final Dynasore). FACs gating strategy: FACS analyze for sytox green (A488) and Lamp1-PE (DsRed). First gate against FSC-A/SSC-A to find non-fragmented or ‘live’ THP-1 cells. Next gate against FITC-A/FSC-A to omit sytox green positive cells. Then gate for FSC-A/FSC-H to remove any doublet cells. The last gate was a histogram for PE. The statistics for ‘count’ and ‘geometric mean fluorescence intensity’ (gWFI) for PE were repoted on the last gate.
Compounds having an activity designated as “++++” provided an exocytosis readout of ≤0.50 μM; compounds having an activity designated as “+++” provided an exocytosis readout of 0.51-1.00 μM; compounds having an activity designated as “++” provided an exocytosis readout of 1.01-5.00 μM; and compounds having an activity designated as “+” provided an exocytosis readout of ≥5.01 μM
The term EC50 denotes the concentration giving half of the maximal effect. A high value points to weaker potency. `O=C(OCc1ccncc1)N1CCC2(CC1)CN(S(=O)(=O)c1ccc(C(F)F)cc1)c1ccccc12` [Compound I-159, pyridin-4-ylmethyl 1-((4-(difluoromethyl)phenyl)sulfonyl)spiro[indoline-3,4′-piperidine]-1′-carboxylate] gave an EC50 not below 5.01 µM.

`CCn1cc(COC(=O)N2CCC3(CC2)CN(S(=O)(=O)c2ccc(C(F)F)cc2)c2ccccc23)cn1` [Compound I-171]: the EC50 was 0.51 to 1 µM.

`Cn1cnc(COC(=O)N2CCC3(CC2)CN(S(=O)(=O)c2ccc(C(F)F)cc2)c2ccccc23)c1` [Compound I-172, (1-methyl-1H-imidazol-4-yl)methyl 1-((4-(difluoromethyl)phenyl)sulfonyl)spiro[indoline-3,4′-piperidine]-1′-carboxylate] registered an EC50 not below 5.01 µM.

For `O=C(OCc1cnoc1)N1CCC2(CC1)CN(S(=O)(=O)c1ccc(C(F)F)cc1)c1ccccc12` [Compound I-173, isoxazol-4-ylmethyl 1-((4-(difluoromethyl)phenyl)sulfonyl)spiro[indoline-3,4′-piperidine]-1′-carboxylate], the EC50 fell in the range of 1.01 to 5 µM.

`O=C(Cc1ccccc1)N1CCC2(CC1)CN(S(=O)(=O)c1ccc(C(F)F)cc1)c1ccccc12` [Compound I-175, 1-(1-((4-(difluoromethyl)phenyl)sulfonyl)spiro[indoline-3,4′-piperidin]-1′-yl)-2-phenylethan-1-one] showed an EC50 not below 5.01 µM.

Regarding `Cn1cc(COC(=O)N2CCC3(CC2)CN(S(=O)(=O)c2ccc(C(F)F)cc2)c2ccccc23)cn1` [Compound I-176], the EC50 was 1.01 to 5 µM.

`CCn1ccc(COC(=O)N2CCC3(CC2)CN(S(=O)(=O)c2ccc(C(F)F)cc2)c2ccccc23)n1` [Compound I-177, (1-ethyl-1H-pyrazol-3-yl)methyl 1-((4-(difluoromethyl)phenyl)sulfonyl)spiro[indoline-3,4′-piperidine]-1′-carboxylate]: the EC50 lay in the range of 0.51 to 1 µM.

`O=C(NCc1ccccc1)N1CCC2(CC1)CN(S(=O)(=O)c1ccc(C(F)F)cc1)c1ccccc12` [Compound I-179, N-benzyl-1-((4-(difluoromethyl)phenyl)sulfonyl)spiro[indoline-3,4′-piperidine]-1′-carboxamide] showed an EC50 not below 5.01 µM.

As to `O=C(OCc1ccccc1)N1CCC2(CC1)CN(S(=O)(=O)c1ccc3c(c1)COC3)c1ccccc12` [Compound I-183, benzyl 1-((1,3-dihydroisobenzofuran-5-yl)sulfonyl)spiro[indoline-3,4′-piperidine]-1′-carboxylate], the EC50 is not above 0.5 µM.

Turning to `O=C(OCc1ccccc1)N1CCC2(CC1)CN(C(=O)c1ccc(C(F)F)cc1)c1ccccc12` [Compound I-185, benzyl 1-(4-(difluoromethyl)benzoyl)spiro[indoline-3,4′-piperidine]-1′-carboxylate], the 50% effective concentration (EC50) was not below 5.01 µM.

Turning to `CC(C)NC(=O)N1CCC2(CC1)CN(S(=O)(=O)c1ccc(C(F)F)cc1)c1ccccc12` [Compound I-192, 1-((4-(difluoromethyl)phenyl)sulfonyl)-N-isopropylspiro[indoline-3,4′-piperidine]-1′-carboxamide], the EC50 is not below 5.01 µM.

`O=C(NCC1CC1)N1CCC2(CC1)CN(S(=O)(=O)c1ccc(C(F)F)cc1)c1ccccc12` [Compound I-193, N-(cyclopropylmethyl)-1-((4-(difluoromethyl)phenyl)sulfonyl)spiro[indoline-3,4′-piperidine]-1′-carboxamide] yielded an EC50 not below 5.01 µM.

`O=C(NCC(F)F)N1CCC2(CC1)CN(S(=O)(=O)c1ccc(C(F)F)cc1)c1ccccc12` [Compound I-194, N-(2,2-difluoroethyl)-1-((4-(difluoromethyl)phenyl)sulfonyl)spiro[indoline-3,4′-piperidine]-1′-carboxamide] gave an EC50 not below 5.01 µM.

For `O=C(NC1CCOC1)N1CCC2(CC1)CN(S(=O)(=O)c1ccc(C(F)F)cc1)c1ccccc12` (stereo not drawn) [Compound I-195, 1-((4-(difluoromethyl)phenyl)sulfonyl)-N-(tetrahydrofuran-3-yl)spiro[indoline-3,4′-piperidine]-1′-carboxamide], the EC50 is not below 5.01 µM.

In turn, `CCOCCNC(=O)N1CCC2(CC1)CN(S(=O)(=O)c1ccc(C(F)F)cc1)c1ccccc12` [Compound I-196, 1-((4-(difluoromethyl)phenyl)sulfonyl)-N-(2-ethoxyethyl)spiro[indoline-3,4′-piperidine]-1′-carboxamide] came in with an EC50 not below 5.01 µM.

Consider `O=C(Nc1ccccc1)N1CCC2(CC1)CN(S(=O)(=O)c1ccc(C(F)F)cc1)c1ccccc12` [Compound I-197, 1-((4-(difluoromethyl)phenyl)sulfonyl)-N-phenylspiro[indoline-3,4′-piperidine]-1′-carboxamide], for which the EC50 was not below 5.01 µM.

In turn, `O=C(Nc1cccnc1)N1CCC2(CC1)CN(S(=O)(=O)c1ccc(C(F)F)cc1)c1ccccc12` [Compound I-198, 1-((4-(difluoromethyl)phenyl)sulfonyl)-N-(pyridin-3-yl)spiro[indoline-3,4′-piperidine]-1′-carboxamide] displayed a concentration giving a half-maximal response (EC50) not below 5.01 µM.

In turn, `Cn1cccc1NC(=O)N1CCC2(CC1)CN(S(=O)(=O)c1ccc(C(F)F)cc1)c1ccccc12` [Compound I-199, 1-((4-(difluoromethyl)phenyl)sulfonyl)-N-(1-methyl-1H-pyrrol-2-yl)spiro[indoline-3,4′-piperidine]-1′-carboxamide] yielded a half-maximal effective concentration (EC50) not below 5.01 µM.

Take `Cn1cc(NC(=O)N2CCC3(CC2)CN(S(=O)(=O)c2ccc(C(F)F)cc2)c2ccccc23)cn1` [Compound I-200, 1-((4-(difluoromethyl)phenyl)sulfonyl)-N-(1-methyl-1H-pyrazol-4-yl)spiro[indoline-3,4′-piperidine]-1′-carboxamide]: the EC50 was not below 5.01 µM.

On to `O=C(NCC(F)(F)F)N1CCC2(CC1)CN(S(=O)(=O)c1ccc(C(F)F)cc1)c1ccccc12` [Compound I-201, 1-((4-(difluoromethyl)phenyl)sulfonyl)-N-(2,2,2-trifluoroethyl)spiro[indoline-3,4′-piperidine]-1′-carboxamide], for which the EC50 was not below 5.01 µM.

For the compound `O=C(Nc1cnsc1)N1CCC2(CC1)CN(S(=O)(=O)c1ccc(C(F)F)cc1)c1ccccc12` [Compound I-202, 1-((4-(difluoromethyl)phenyl)sulfonyl)-N-(isothiazol-4-yl)spiro[indoline-3,4′-piperidine]-1′-carboxamide], the EC50 was not below 5.01 µM.

Compound `O=C(NCC1CCCO1)N1CCC2(CC1)CN(S(=O)(=O)c1ccc(C(F)F)cc1)c1ccccc12` (stereo not drawn) [Compound I-203, 1-((4-(difluoromethyl)phenyl)sulfonyl)-N-((tetrahydrofuran-2-yl)methyl)spiro[indoline-3,4′-piperidine]-1′-carboxamide] yielded an EC50 not below 5.01 µM.

`O=C(NCC1CCOC1)N1CCC2(CC1)CN(S(=O)(=O)c1ccc(C(F)F)cc1)c1ccccc12` (stereo not drawn) [Compound I-204] came in with a concentration giving a half-maximal response (EC50) not below 5.01 µM.

`O=C(NC1CCOCC1)N1CCC2(CC1)CN(S(=O)(=O)c1ccc(C(F)F)cc1)c1ccccc12` [Compound I-205, 1-((4-(difluoromethyl)phenyl)sulfonyl)-N-(tetrahydro-2H-pyran-4-yl)spiro[indoline-3,4′-piperidine]-1′-carboxamide] showed an EC50 not below 5.01 µM.

Consider `O=C(NC1CC(F)(F)C1)N1CCC2(CC1)CN(S(=O)(=O)c1ccc(C(F)F)cc1)c1ccccc12` [Compound I-206, N-(3,3-difluorocyclobutyl)-1-((4-(difluoromethyl)phenyl)sulfonyl)spiro[indoline-3,4′-piperidine]-1′-carboxamide], for which the concentration giving a half-maximal response (EC50) is not below 5.01 µM.

`CCn1cc(NC(=O)N2CCC3(CC2)CN(S(=O)(=O)c2ccc(C(F)F)cc2)c2ccccc23)cn1` [Compound I-207, 1-((4-(difluoromethyl)phenyl)sulfonyl)-N-(1-ethyl-1H-pyrazol-4-yl)spiro[indoline-3,4′-piperidine]-1′-carboxamide] displayed an EC50 not below 5.01 µM.

`O=C(NCCn1cccn1)N1CCC2(CC1)CN(S(=O)(=O)c1ccc(C(F)F)cc1)c1ccccc12` [Compound I-208, N-(2-(1H-pyrazol-1-yl)ethyl)-1-((4-(difluoromethyl)phenyl)sulfonyl)spiro[indoline-3,4′-piperidine]-1′-carboxamide] registered an EC50 not below 5.01 µM.
